Test results published in patent publication US20150044201A1, “CYCLON EXPRESSION FOR THE IDENTIFICATION AND CONTROL OF CANCER CELLS” (UNIVERSITE JOSEPH FOURIER - GRENOBLE, priority 2012, published 2015).
Entries after “also recorded” stand apart in the source; their conditions may differ.

Columns and labels:
Cyclon = conditions: K562 leukemic cells treated with Imatinib, public data GDS3043; cited from earlier work
Raji cells [1] = assay: Xenotransplantation assay, Raji shCtrl / shCyclon tumours treated with Rituximab; type: in vivo, nude mice; conditions: subcutaneous, daily intraperitoneal 200 μg Rituximab
Description: 3·10^6 Raji cells were injected subcutaneously into the flank of 6 to 8 week-old nude mice as described. Four mice were injected, each of them with shCtrl and shCyclon Raji cells into the right and left flanks respectively. When tumours were palpable (˜[…]), mice were given daily intraperitoneal injections of 200 μg Rituximab. Tumour volume was measured every 2 days using the formula I^2×L×0.52 (n=4 for each group).

Raji cells [2] = assay: Evaluation of Rituximab sensitivity, complement dependent cytotoxicity (CDC) assay; type: cell-based; conditions: sh Cyclon vs sh Ctrl cell lines (Raji, B593, SUDHL4); 1 h, 1 μg/ml Rituximab, 20% human serum
Description: (§1) Non-targeting or CYCLON targeting short hairpin (sh) RNA sequences were designed using the DSIR algorithm (http://biodev.cea.fr/DSIR/DSIR.html). Sequences, provided in Table 1, were cloned into the pLKO-1 lentiviral vector (Addgene) and packaged as described (Levy et al., 2010) or purchased from Santa Cruz. Cells were transduced with lentiviral particles at a MOI of 10. Stable cell lines were established under puromycin selection (1 μg/ml).
(§2) Cells were treated with 1 to 10 μg/ml Rituximab (Roche) or isotype control (Herceptin, Roche) for 24 h for direct apoptosis assays and for 1 h in presence of 20% human serum as a source of complement for CDC assays. Cell viability was evaluated by AnnexinV/IP (Beckman Coulter) or IP staining and flow cytometry analysis (LSIIR, BD). Specific cell death was calculated as (% of cell death with Rituximab−% cell death with Herceptin)/(1−% cell death with Herceptin), n=8 for each cell line.

Raji cells [3] = assay: Evaluation of Rituximab sensitivity, direct apoptosis assay; type: cell-based; conditions: sh Cyclon vs sh Ctrl cell lines (Raji, B593, SUDHL4); 24 h, 10 μg/ml Rituximab
Description: as §1, §2

| Molecule | Cyclon expression level (Cyclon) | tumour regression, day of treatment (Raji cells [1]; Cyclon-depleted tumours (Raji shCyclon)) [days] | tumour regression, day of treatment (Raji cells [1]; control tumours (Raji shCtrl)) [days] | sensitivity of cancer cells through complement dependent cytotoxicity (CDC specific cell death) (Raji cells [2]) | sensitivity of cancer cells through direct apoptosis (specific cell death) (Raji cells [3]) |
| --- | --- | --- | --- | --- | --- |
| Cc1ccc(NC(=O)c2ccc(CN3CCN(C)CC3)cc2)cc1Nc1nccc(-c2cccnc2)n1 [Imatinib] | down-regulation of Cyclon; also recorded: reduce Cyclon expression levels | – | – | – | – |
| Rituximab | – | ≤ 4 | 14 | increased sensitivity | increased sensitivity |
